Marks after values point to notes of the source that are not given here.
Assays:
[1] = test system: rats with common carotid artery occlusion-induced vascular dementia; assay: Step-down test, common carotid artery occlusion-induced vascular dementia rats; format: in vivo, rat; settings: for Day 1, Error number / Day 2, Error latency / Day 2, Error number: step-down method, x ± s, succinate
Text: (§1) A rat blood vessel dementia model was made according to the references [ZHAO Xian-lin, FANG Xiu-bin, LI Dong-pei. Establishment of Vascular Dementia Model in Rats, J Chin Med Univ, 2002, 31 (3): 166-168; WANG Yong-yan, Zhang Bo-li, Editor-in-chief. Modern Chinese Medicine Clinic and Research on Vascular Dementia, People's Medical Publishing House, October 2003, First Version 214]: Chloral hydrate 0.4 g/kg was intraperitoneally injected for anesthetizing rats, and bilateral common carotid arteries were isolated and ligated. The animals were fed for 16 weeks, divided into groups on the last 7 days, and administered. The normal control group and the model group were administrated through the intragastric route with distilled water by 0.5 ml/100 g, the positive control group was administrated through the intragastric route with donepezil hydrochloride by 1.75 mg/kg (equivalent to 3.85 times the clinical daily dosage of 5 mg/70 kg), the low, medium and high-dose groups of Crystal Form A of octahydroaminoacridine succinate were administrated through the intragastric route with Crystal Form A of octahydroaminoacridine succinate by 0.7, 1.4 and 2.8 mg/kg (equivalent to 0.96, 1.92 and 3.85 times the clinical daily dosage of 8 mg/70 kg). The water maze test and the step-down test were carried out after continuous administration for 7 days, and the administration was continued during the test period. The water maze test was continuously performed for 7 days, in the first 6 days, in four different water entry points of quadrants 1, 2, 3 and 4, the time, the swimming path length, the orientation angle and the average speed of the rat reaching the platform were measured, meanwhile, the strategy for reaching the platform adopted by rats was observed, on the 7th day, the platform was removed, the number of rats crossing the platform in 2 minutes, the residence time in the platform area, the residence time in the platform quadrants, the percentage of the swimming path length in the platform area quadrants to the total swimming path length, the average speed and the orientation angle were measured. After the water maze test was finished, the step-down test was performed, and the number of electric shocks (or called as the error number) received by each rat within 5 minutes was recorded as the learning performance. The test was performed again after 24 hours, namely, the memory retention test, and the latent period for stepping-down the platform for the first time and the error number in five minutes were recorded. After the step-down test was finished, the brain was taken quickly for pathological examination, and the pathological changes of the hippocampus and the cortex were observed.

[2] = test system: rats with common carotid artery occlusion-induced vascular dementia; assay: Water maze test, common carotid artery occlusion-induced vascular dementia rats; format: in vivo, rat; settings: for adopted strategy for reaching the platform (the peripheral type and the random type %) / orientation angle for reaching the platform / speed for reaching the platform / swimming path length for reaching the platform / time for reaching the platform: succinate; for orientation angle for reaching the platform / speed for reaching the platform / swimming path length for reaching the platform / time for reaching the platform: x ± s
Text: as §1

[3] = 0.7 mg/kg intragastric, 0.7 mg/kg
[4] = 1.4 mg/kg intragastric, 1.4 mg/kg
[5] = 2.8 mg/kg intragastric, 2.8 mg/kg
[6] = Day 1, 0.7 mg/kg intragastric, 0.7 mg/kg
[7] = Day 1, 1.4 mg/kg intragastric, 1.4 mg/kg
[8] = Day 1, 2.8 mg/kg intragastric, 2.8 mg/kg
[9] = Day 2, 0.7 mg/kg intragastric, 0.7 mg/kg
[10] = Day 2, 1.4 mg/kg intragastric, 1.4 mg/kg
[11] = Day 2, 2.8 mg/kg intragastric, 2.8 mg/kg
[12] = Day 3, 0.7 mg/kg intragastric, 0.7 mg/kg
[13] = Day 3, 1.4 mg/kg intragastric, 1.4 mg/kg
[14] = Day 3, 2.8 mg/kg intragastric, 2.8 mg/kg

Nc1c2c(nc3c1CCCC3)CCCC2.O=C(O)CCC(=O)O [Crystal Form A, 9-amino-1,2,3,4,5,6,7,8-octahydroacridine succinate]
step-down error number vs model group ([1]; 1.4 mg/kg, Day 2, P<0.05): obviously reduced
step-down error number vs model group ([1]; 2.8 mg/kg, Day 1 and Day 2, P<0.05): obviously reduced
error latency vs model group ([1]; 2.8 mg/kg, Day 2, P<0.05): obviously prolonged
Day 1, Error number [1, 3]: 7.50 ± 4.06
Day 2, Error latency [1, 3]: 215.30 ± 83.07 s
Day 2, Error number [1, 3]: 1.70 ± 1.49
Day 1, Error number [1, 4]: 6.60 ± 2.88
Day 2, Error latency [1, 4]: 223.70 ± 75.02 s
Day 2, Error number [1, 4]: 1.30 ± 1.25
Day 1, Error number [1, 5]: 5.80 ± 2.65
Day 2, Error latency [1, 5]: 250.10 ± 72.32 s
Day 2, Error number [1, 5]: 0.90 ± 1.28
swimming path length for reaching the platform vs model group ([2]; 1.4 mg/kg, Day 4, P<0.05): obviously shortened
latent period for reaching the platform vs model group ([2]; 1.4 mg/kg, Day 4 to Day 6, P<0.05 or P<0.01): obviously shortened
swimming path length for reaching the platform vs model group ([2]; 2.8 mg/kg, Day 3, P<0.05): obviously shortened
latent period for reaching the platform vs model group ([2]; 2.8 mg/kg, Day 3 to Day 6, P<0.05 or P<0.01): obviously shortened
orientation angle and swimming speed vs model group ([2]; 0.7, 1.4 and 2.8 mg/kg, Day 1 to Day 6): not obviously changed
residence time in the platform quadrants, average speed, orientation angle and percentage of the swimming path length in the platform area quadrants to the total swimming path length vs model group ([2]; 0.7, 1.4 and 2.8 mg/kg, Day 7): not obviously changed
number of rats crossing the platform within 2 minutes vs model group ([2]; 1.4 and 2.8 mg/kg, Day 7, P<0.05): obviously increased
conversion from the peripheral type or the random type to the tendency type or the linear type in the strategy for looking for the platform ([2]; 1.4 and 2.8 mg/kg, P<0.05 or P<0.01): obviously increased
adopted strategy for reaching the platform (the peripheral type and the random type %) [2, 6]: 75.00%
orientation angle for reaching the platform [2, 6]: 64.44 ± 24.84 °
speed for reaching the platform [2, 6]: 21.68 ± 6.14 cm/s
swimming path length for reaching the platform [2, 6]: 1250.31 ± 599.61 cm
time for reaching the platform [2, 6]: 60.40 ± 30.23 s
adopted strategy for reaching the platform (the peripheral type and the random type %) [2, 7]: 92.50%
orientation angle for reaching the platform [2, 7]: 63.00 ± 21.34 °
speed for reaching the platform [2, 7]: 22.93 ± 7.28 cm/s
swimming path length for reaching the platform [2, 7]: 1491.17 ± 529.46 cm
time for reaching the platform [2, 7]: 75.55 ± 32.44 s
adopted strategy for reaching the platform (the peripheral type and the random type %) [2, 8]: 87.50%
orientation angle for reaching the platform [2, 8]: 75.34 ± 20.00 °
speed for reaching the platform [2, 8]: 23.52 ± 5.71 cm/s
swimming path length for reaching the platform [2, 8]: 1555.98 ± 522.10 cm
time for reaching the platform [2, 8]: 69.25 ± 15.97 s
adopted strategy for reaching the platform (the peripheral type and the random type %) [2, 9]: 86.00%
orientation angle for reaching the platform [2, 9]: 52.13 ± 14.28 °
speed for reaching the platform [2, 9]: 23.68 ± 5.10 cm/s
swimming path length for reaching the platform [2, 9]: 1368.59 ± 636.46 cm
time for reaching the platform [2, 9]: 55.04 ± 31.39 s
adopted strategy for reaching the platform (the peripheral type and the random type %) [2, 10]: 65.00%
orientation angle for reaching the platform [2, 10]: 48.91 ± 15.52 °
speed for reaching the platform [2, 10]: 29.02 ± 6.70 cm/s
swimming path length for reaching the platform [2, 10]: 917.85 ± 346.36 cm
time for reaching the platform [2, 10]: 38.71 ± 18.28 s
adopted strategy for reaching the platform (the peripheral type and the random type %) [2, 11]: 82.50%
orientation angle for reaching the platform [2, 11]: 57.20 ± 22.99 °
speed for reaching the platform [2, 11]: 28.32 ± 7.08 cm/s
swimming path length for reaching the platform [2, 11]: 1025.55 ± 559.44 cm
time for reaching the platform [2, 11]: 40.76 ± 23.88 s
adopted strategy for reaching the platform (the peripheral type and the random type %) [2, 12]: 66.67%
orientation angle for reaching the platform [2, 12]: 57.18 ± 14.54 °
speed for reaching the platform [2, 12]: 26.27 ± 6.15 cm/s
swimming path length for reaching the platform [2, 12]: 698.11 ± 448.85 cm
time for reaching the platform [2, 12]: 29.31 ± 15.94 s
adopted strategy for reaching the platform (the peripheral type and the random type %) [2, 13]: 65.00* %
orientation angle for reaching the platform [2, 13]: 53.59 ± 14.56 °
speed for reaching the platform [2, 13]: 25.25 ± 5.42 cm/s
swimming path length for reaching the platform [2, 13]: 804.05 ± 351.90 cm
time for reaching the platform [2, 13]: 30.21 ± 14.13 s
adopted strategy for reaching the platform (the peripheral type and the random type %) [2, 14]: 60.00* %
orientation angle for reaching the platform [2, 14]: 41.65 ± 17.28 °
speed for reaching the platform [2, 14]: 24.59 ± 6.25 cm/s
swimming path length for reaching the platform [2, 14]: 512.17 ± 265.98 cm

— US12215085B2 (priority 2019, dated 2025)
